Patent US9050326B2, “Amido derivatives-contained pharmaceutical composition” (priority 2008, dated 2015)
In brackets after ≈: the same amount, converted by molar mass.

Columns and labels:
[1] = Solubility, dissolution test of the 15th Edition of the Japanese Pharmacopoeia; type: physicochemical; conditions: thermodynamic from solid, without storage, read-out: Solubility of compound A
[2] = Chemical stability against heat in manufacturing a solid dispersion with a twin screw extruder (melting method); type: physicochemical
Text: Salts, a clathrate, a solid dispersion, and the like are known as methods of improving the solubility of a slightly water-soluble drug. However, with respect to compound A per se, it is expected that a salt of compound A is desalted, even if the solubility is improved, and that the inclusion ability of cyclodextrin, which is commonly used as a host of clathrates, is low.

solubility [1]: 2 µg/mL (≈ 4.14 µM) | Chemical stability against heat [2]: low chemical stability against heat
Structure (SMILES): Cc1cccc(C)c1N(CC(=O)Nc1ccc(-c2ncon2)cc1)C(=O)C1CCS(=O)(=O)CC1 [Compound A, N-(2,6-Dimethylphenyl)-N-(2-{[4-(1,2,4-oxadiazol-3-yl)phenyl]amino}-2-oxoethyl)tetrahydro-2H-thiopyran-4-carboxamide 1,1-dioxide]
